Measured values taken from patent US20200115357A1, “LIVER X RECEPTORS (LXR) MODULATORS” (Phenex-FXR GmbH, priority 2017, published 2020).

Columns and labels:
LXRβ full length (FL) = target: T1, LXRβ full length (FL) (Homo sapiens, UniProt P55055, DUP175-175); assay: LXR Gal4 reporter transient transfection assay (M2H), Gal4β FL; assay type: cell-based; settings: HEK293 cells; read-out: M2H Gal4β FL activity range (EC50)
T1 construct: the full length (FL) proteins of LXRα (amino acids 1-447); NP005684; NP009052; expressed in transfected cells; host or cells: HEK293
T1 sequence (P55055 with tags, fused parts or gaps DUP175-175): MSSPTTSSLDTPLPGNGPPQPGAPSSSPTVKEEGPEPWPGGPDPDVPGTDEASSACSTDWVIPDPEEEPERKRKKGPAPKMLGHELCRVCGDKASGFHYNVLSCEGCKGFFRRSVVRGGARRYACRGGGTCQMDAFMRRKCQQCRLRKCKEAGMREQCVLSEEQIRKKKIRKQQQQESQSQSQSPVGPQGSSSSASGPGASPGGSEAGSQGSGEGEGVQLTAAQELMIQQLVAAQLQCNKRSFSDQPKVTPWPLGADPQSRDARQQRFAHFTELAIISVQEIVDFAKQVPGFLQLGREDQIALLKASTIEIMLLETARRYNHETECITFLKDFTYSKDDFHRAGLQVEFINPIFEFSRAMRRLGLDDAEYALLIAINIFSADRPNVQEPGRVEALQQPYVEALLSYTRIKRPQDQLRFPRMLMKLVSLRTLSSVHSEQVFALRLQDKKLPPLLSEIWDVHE
Description: (§1) The tested compounds were usually dissolved, tested and stored as 20 mM stock solutions in DMSO. Since sulfonyl acetic acid derivatives tend to decarboxylate under these conditions, these stock solutions were prepared, tested and stored as 20 mM DMSO stock solutions containing 100 mM trifluoroacetic acid (5 equivalents). Sulfonyl acetic acid derivatives are shelf stable as solid at rt for long time as reported by Griesbrecht et al. (Synlett 2010:374) or Faucher et al. (J. Med. Chem. 2004; 47:18).
(§2) LXR Gal4 Reporter Transient Transfection Assays
(§3) LXRα and LXRβ activity status was determined via detection of interaction with coactivator and corepressor proteins in mammalian two-hybrid experiments (M2H). For this, via transient transfection the full length (FL) proteins of LXRα (amino acids 1-447; NP005684; SEQ ID NO:7) or LXRβ-(amino acids 1-461; NP009052; SEQ ID NO:8) or the ligand-binding domains (LBD) of LXRα (amino acids 155-447 SEQ ID NO:3) or LXRβ (amino acids 156-461; SEQ ID NO:4) were expressed from pCMV-AD (Stratagene) as fusions to the transcriptional activation domain of NFkB. As cofactors, domains of either the steroid receptor coactivator 1 (SRC1; amino acids 552-887; SEQ ID NO:5) or of the corepressor NCoR (amino acids 1903-2312 SEQ ID NO:6) were expressed as fusions to the DNA binding domain of the yeast transcription factor GAL4 (from pCMV-BD; Stratagene). Interaction was monitored via activation of a coexpressed Firefly Luciferase Reporter gene under control of a promoter containing repetitive GAL4 response elements (vector pFRLuc; Stratagene). Transfection efficiency was controlled via cotransfection of constitutively active pRL-CMV Renilla reniformis luciferase reporter (Promega). HEK293 cells were grown in minimum essential medium (MEM) with 2 mM L-glutamine and Earle's balanced salt solution supplemented with 8.3% fetal bovine serum, 0.1 mM non-essential amino acids, 1 mM sodium pyruvate, at 37° C. in 5% CO2. 3.5×10^4 cells/well were plated in 96-well cell culture plates in growth medium supplemented with 8.3% fetal bovine serum for 16-20 h to ˜90% confluency. For transfection, medium was taken off and LXR and cofactor expressing plasmids as well as the reporter plasmids are added in 30 μL OPTIMEM/well including polyethylene-imine (PEI) as vehicle. Typical amounts of plasmids transfected/well: pCMV-AD-LXR (5 ng), pCMV-BD-cofactor (5 ng), pFR-Luc (100 ng), pRL-CMV (0.5 ng). Compound stocks were prepared in DMSO, prediluted in MEM to a total volume of 120 μL, and added 4 h after addition of the transfection mixture (final vehicle concentration not exceeding 0.2%). Cells were incubated for additional 16 h, lysed for 10 min in 1× Passive Lysis Buffer (Promega) and Firefly and Renilla luciferase activities were measured sequentially in the same cell extract using buffers containing D-luciferine and coelenterazine, respectively. Measurements of luminescence were done in a BMG-Iuminometer.

LXRα full length (FL) = target: T2, LXRα full length (FL) (Homo sapiens, UniProt Q13133); assay: LXR Gal4 reporter transient transfection assay (M2H), Gal4α FL; assay type: cell-based; settings: HEK293 cells; read-out: M2H Gal4α FL activity range (EC50)
T2 construct: the full length (FL) proteins of LXRα (amino acids 1-447); NP005684; expressed in transfected cells; host or cells: HEK293
T2 sequence (Q13133 1-447): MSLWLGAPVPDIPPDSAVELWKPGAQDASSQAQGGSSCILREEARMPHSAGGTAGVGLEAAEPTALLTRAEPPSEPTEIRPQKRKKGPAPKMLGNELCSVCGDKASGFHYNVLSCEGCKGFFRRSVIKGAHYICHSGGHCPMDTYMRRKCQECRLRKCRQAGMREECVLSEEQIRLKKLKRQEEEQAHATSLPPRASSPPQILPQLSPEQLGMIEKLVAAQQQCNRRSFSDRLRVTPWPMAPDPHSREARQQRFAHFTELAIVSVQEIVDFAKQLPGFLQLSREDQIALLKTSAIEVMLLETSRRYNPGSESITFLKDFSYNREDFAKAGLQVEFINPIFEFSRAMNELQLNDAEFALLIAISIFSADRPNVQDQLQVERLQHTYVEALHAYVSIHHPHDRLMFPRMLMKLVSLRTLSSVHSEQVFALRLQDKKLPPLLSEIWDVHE
Description: as §1, §2, §3

[1] = target: T3, GST-LXRβ ligand-binding domain (Homo sapiens, UniProt P55055, DUP175-175); assay: TR-FRETβ activity assay (LXRβ-LBD / NCoA3 coactivator peptide, prestimulated with 24(S)-25-epoxycholesterol); assay type: biochemical; design: key to behavior in FRET assay: ag=agonist; ia=inverse agonist; settings: for EC50: read-out: FRETβ activity range (EC50); for behavior in FRET assay: agonist or inverse agonist
T3 construct: amino acids 156-461; NP009052; made in house; host or cells: E. coli
T3 sequence (P55055 with tags, fused parts or gaps DUP175-175): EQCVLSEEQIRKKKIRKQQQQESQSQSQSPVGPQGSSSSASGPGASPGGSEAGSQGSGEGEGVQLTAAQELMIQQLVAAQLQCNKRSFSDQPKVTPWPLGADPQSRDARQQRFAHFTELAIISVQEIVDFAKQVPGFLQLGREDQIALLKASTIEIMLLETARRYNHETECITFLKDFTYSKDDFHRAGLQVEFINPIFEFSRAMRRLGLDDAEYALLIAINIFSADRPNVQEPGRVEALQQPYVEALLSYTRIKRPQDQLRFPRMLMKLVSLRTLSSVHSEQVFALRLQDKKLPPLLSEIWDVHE
Description: The tested compounds were usually dissolved, tested and stored as 20 mM stock solutions in DMSO. […] Sulfonyl acetic acid derivatives are shelf stable as solid at rt for long time as reported by Griesbrecht et al. (Synlett 2010:374) or Faucher et al. (J. Med. Chem. 2004; 47:18). TR-FRETβ Activity Assay Recombinant GST-LXRβ ligand-binding domain (LBD; amino acids 156-461; NP009052; SEQ ID NO:2) was expressed in E. coli and purified via gluthatione-sepharose affinity chromatography. N-terminally biotinylated NCoA3 coactivator peptide (SEQ ID NO:1) was chemically synthesized (Eurogentec). […] Finally, a detection mix was added containing anti GST-Tb cryptate (CisBio; 610SAXLB) and Streptavidin-XL665 (CisBio; 610SAXLB) as fluorescent donor and acceptor, respectively, as well as the coactivator peptide and LXRβ-LBD protein (SEQ ID NO:2). The reaction was mixed thoroughly, equilibrated for 1 h at 4° C. and vicinity of LXRβ and coactivator peptide was detected by measurement of fluorescence in a VictorX4 multiplate reader (PerkinElmer Life Science) using 340 nm as excitation and 615 and 665 nm as emission wavelengths. Assays were performed in triplicates. Final Assay Concentrations of Components: 240 mM KCl, 1 μg/μL BSA, 0.002% Triton-X-100, […] anti GST-Tb cryptate, 2.5 ng/μL Streptavidin-XL665, coactivator peptide (400 nM), LXRβ protein ([…], i.e. 76 nM)

[2] = 1 μM 24(S)-25-epoxycholesterol as prestimulating agonist

Cc1cc(C)c(S(=O)(=O)N(Cc2ccc(-c3cccc(S(=O)(=O)CC(=O)O)c3)cc2)Cc2ccc(F)c(C)c2)c(C)c1 [11/5]
EC50 (LXRβ full length (FL)): 100 to 1000 nM | EC50 (LXRα full length (FL)): 1000 to 10000 nM | EC50 [1, 2]: > 10000 nM | behavior in FRET assay [1]: ia

Cc1cc(C)c(S(=O)(=O)N(Cc2ccc(-c3cccc(S(=O)(=O)CC(=O)O)c3)cc2)Cc2c(F)cccc2Cl)c(C)c1 [11/6]
EC50 (LXRβ full length (FL)): < 100 nM | EC50 (LXRα full length (FL)): 100 to 1000 nM | EC50 [1, 2]: 100 to 1000 nM | behavior in FRET assay [1]: ag

Cc1cc(C)c(S(=O)(=O)N(Cc2ccc(-c3cccc(S(=O)(=O)CC(=O)O)c3)cc2)Cc2cncc(C(F)(F)F)c2)c(C)c1 [11/9]
EC50 (LXRβ full length (FL)): 1000 to 10000 nM | EC50 (LXRα full length (FL)): 1000 to 10000 nM | EC50 [1, 2]: 1000 to 10000 nM | behavior in FRET assay [1]: ia

Cc1cc(C)c(S(=O)(=O)N(Cc2ccc(-c3cccc(S(=O)(=O)CC(=O)O)c3)cc2)Cc2csc(C(F)(F)F)c2)c(C)c1 [11/10]
EC50 (LXRβ full length (FL)): 1000 to 10000 nM | EC50 (LXRα full length (FL)): 1000 to 10000 nM | EC50 [1, 2]: 1000 to 10000 nM | behavior in FRET assay [1]: ia

Cc1cc(C)c(S(=O)(=O)N(Cc2ccc(-c3cccc(S(=O)(=O)CC(=O)O)c3)cc2)Cc2ccc(F)cc2Cl)c(C)c1 [11/11]
EC50 (LXRβ full length (FL)): 100 to 1000 nM | EC50 (LXRα full length (FL)): 1000 to 10000 nM | EC50 [1, 2]: 100 to 1000 nM | behavior in FRET assay [1]: ag

Cc1cc(C)c(S(=O)(=O)N(Cc2ccc(-c3cccc(S(=O)(=O)CC(=O)O)c3)cc2)Cc2ccccc2C(F)(F)F)c(C)c1 [11/12]
EC50 (LXRβ full length (FL)): < 100 nM | EC50 (LXRα full length (FL)): 100 to 1000 nM | EC50 [1, 2]: 100 to 1000 nM | behavior in FRET assay [1]: ag

Cc1cc(C)c(S(=O)(=O)N(Cc2ccc(-c3cccc(S(=O)(=O)CC(=O)O)c3)cc2)Cc2cccc(OC(F)F)c2)c(C)c1 [11/15]
EC50 (LXRβ full length (FL)): 100 to 1000 nM | EC50 (LXRα full length (FL)): 1000 to 10000 nM | EC50 [1, 2]: 1000 to 10000 nM | behavior in FRET assay [1]: ia

Cc1cc(C)c(S(=O)(=O)N(Cc2ccc(-c3cccc(S(=O)(=O)CC(=O)O)c3)cc2)Cc2cccc(Cl)c2)c(C)c1 [11/16]
EC50 (LXRβ full length (FL)): 100 to 1000 nM | EC50 (LXRα full length (FL)): 1000 to 10000 nM | FRETβ activity range (EC50) [1, 2]: inactive

Cc1cccc(C)c1S(=O)(=O)N(Cc1ccc(-c2cccc(S(=O)(=O)CC(=O)O)c2)cc1)Cc1ccc(C(F)(F)F)o1 [14/2]
EC50 (LXRβ full length (FL)): 100 to 1000 nM | EC50 (LXRα full length (FL)): 1000 to 10000 nM | EC50 [1, 2]: 1000 to 10000 nM | behavior in FRET assay [1]: ia

Cc1ccc2ccccc2c1S(=O)(=O)N(Cc1ccc(-c2cccc(C(C)(C)C(=O)O)c2)cc1)C1CCc2ccc(C(F)(F)F)cc21 (stereo not shown) [17/2]
EC50 (LXRβ full length (FL)): < 100 nM | EC50 (LXRα full length (FL)): < 100 nM | EC50 [1, 2]: 100 to 1000 nM | behavior in FRET assay [1]: ia

Cc1cc(C(F)(F)F)oc1CN(Cc1ccc(-c2cccc(C(C)(C)C(=O)O)c2)cc1)S(=O)(=O)c1c(C)ccc2ccccc12 [17/3]
EC50 (LXRβ full length (FL)): < 100 nM | EC50 (LXRα full length (FL)): < 100 nM | EC50 [1, 2]: < 100 nM | behavior in FRET assay [1]: ia

Cc1cc(C)c(S(=O)(=O)N(Cc2ccc(-c3cccc(S(=O)(=O)C(C)C(=O)O)c3)cc2)Cc2ccc(C(F)(F)F)o2)c(C)c1 (stereo not shown) [Example 5/1]
EC50 (LXRβ full length (FL)): 100 to 1000 nM | EC50 (LXRα full length (FL)): 100 to 1000 nM | EC50 [1, 2]: 1000 to 10000 nM | behavior in FRET assay [1]: ia

Cc1ccc2ccccc2c1S(=O)(=O)N(Cc1ccc(-c2cccc(S(=O)(=O)CC(=O)O)c2)cc1)Cc1ccc(C#N)o1 [Example 5/7]
EC50 (LXRβ full length (FL)): 100 to 1000 nM | EC50 (LXRα full length (FL)): 100 to 1000 nM | EC50 [1, 2]: 1000 to 10000 nM | behavior in FRET assay [1]: ia

Cc1cc(C)c(S(=O)(=O)N(Cc2ccc(-c3cc(F)c(CO)c(S(=O)(=O)CC(=O)O)c3)cc2)Cc2ccc(C(F)(F)F)o2)c(C)c1 [Example 9, 2-((5-Fluoro-4-(hydroxymethyl)-4′-(((2,4,6-trimethyl-N-((5-(trifluoromethyl)furan-2-yl)methyl)phenyl)sulfonamido)methyl)-[1,1′-biphenyl]-3-yl)sulfonyl)acetic acid]
EC50 (LXRβ full length (FL)): 100 to 1000 nM | EC50 (LXRα full length (FL)): 100 to 1000 nM | EC50 [1, 2]: 1000 to 10000 nM | behavior in FRET assay [1]: ia
